Laboratory results: patent publication US20220289756A1, “COMPOUNDS AND COMPOSITIONS AS INHIBITORS OF PROTEIN KINASES” (priority 2021, published 2022)

Experiments:
ABL (WT) = molecular target: T1, ABL (WT) (Homo sapiens, UniProt P00519); experiment: Abl kinase activity assay, Kinase-Glo Plus luminescence (BPS Biosciences); assay type: biochemical; settings: 10 μM ATP
T1 construct: purchased BPS Biosciences (named as the lab that ran the assay)
Protocol: (§1) Assay was conducted by BPS Biosciences, 6405 Mira Mesa Blvd. Suite 100. San Diego, Calif. 92121. United States
(§2) • The assay was performed using Kinase-Glo Plus luminescence kinase assay kit (Promega). It measures kinase activity by quantitating the amount of ATP remaining in solution following a kinase reaction. The luminescent signal from the assay is correlated with the amount of ATP present and is inversely correlated with the amount of kinase activity. • The testing compounds were diluted in 10% DMSO and 5 μl of the dilution was added to a 50 μl reaction so that the final concentration of DMSO is 1% in all of reactions. All of the enzymatic reactions were conducted at 30° C. for 45 minutes. The 50 μl reaction mixture contains 40 mM Tris, pH 7.4, 10 mM MgCl2, 0.1 mg/ml BSA, 1 mM DTT, 10 μM ATP, Kinase substrate and the enzyme. After the enzymatic reaction, 50 μl of Kinase-Glo Plus Luminescence kinase assay solution (Promega) was added to each reaction and incubated on the plate for 15 minutes, at room temperature. Luminescence signal was measured using a BioTek Synergy 2 microplate reader.
(§3) • Kinase activity assays were performed in duplicate at each concentration. The luminescence data were analyzed using the computer software, Graphpad Prism. The difference between luminescence intensities in the absence of Kinase (Lut) and in the presence of Kinase (Luc) was defined as 100% activity (Lut−Luc). Using luminescence signal (Lu) in the presence of the compound, % activity was calculated as: • % activity={(Lut−Lu)/(Lut−Luc)}×100%, where Lu=the luminescence intensity in the presence of the compound. The values of % activity versus a series of compound concentrations were then plotted using non-linear regression analysis of Sigmoidal dose-response curve generated with the equation Y=B+(T−B)/1+10 ((LogEC50−X)×Hill Slope), where Y=percent activity, B=minimum percent activity, T=maximum percent activity, X=logarithm of compound and Hill Slope=slope factor or Hill coefficient. The IC 50 value was determined by the concentration causing a half-maximal percent activity.

Abl(T315I) = molecular target: T2, Abl(T315I) (Homo sapiens, UniProt P00519, T315I); experiment: Abl(T315I) kinase activity assay, Kinase-Glo Plus luminescence (BPS Biosciences); assay type: biochemical; settings: 10 μM ATP
T2 construct: purchased BPS Biosciences (named as the lab that ran the assay)
Protocol: as §1, §2, §3

[1] = 10 nM compound, read-out: % Inhibition of Compound 55 @10 nM
[2] = 100 nM compound, read-out: % Inhibition of Compound 55 @100 nM

inhibition at 0.01 µM (ABL (WT); [1]): > 10%
inhibition at 0.1 µM (ABL (WT); [2]): > 25%
IC50 (ABL (WT); read-out: IC-50 of Compound 55): < 500 nM
inhibition at 0.01 µM (Abl(T315I); [1]): > 10%
inhibition at 0.1 µM (Abl(T315I); [2]): > 25%
IC50 (Abl(T315I); read-out: IC-50 of Compound 55): < 500 nM
Structure (SMILES): Cc1ccc(C(=O)Nc2ccc(CN3CCN(C)CC3)c(C(F)(F)F)c2)cc1C12CC(c3cnc4cccnn34)(C1)C2 [Compound 55, 3-(3-(imidazo[1,2-b]pyridazin-3-yl)bicyclo[1.1.1]pentan-1-yl)-4-methyl-N-(4-((4-methylpiperazin-1-yl)methyl)-3-(trifluoromethyl)phenyl)benzamide]
